Columns and labels:
[1] = test system: E. coli expressing the Class A Extended Spectrum Beta-Lactamase (ESBL) CTX-M-15; assay: Broth microdilution MIC assay with ceftazidime, E. coli CTX-M-15; format: cell-based; settings: Fixed CAZ (ceftazidime) 4 μg/mL; E. coli ESBL4 CTX-M-15
Method in brief: (§1)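 CLSI broth microdilution in cation-adjusted Mueller Hinton broth measured growth of β-lactamase-expressing strains, grown 3-5 h beforehand. The β-lactam partner was held at 4 μg/ml final while test compound was titrated 2-fold from 16 to 0.125 μg/mL final. After 16-20 h at 37° C, the compound MIC was determined by eye.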

VIM-2 = molecular target: T1, VIM-2 (Escherichia coli, UniProt Q5U7L7); assay: β-lactamase enzyme inhibition assay, VIM-2 (nitrocefin substrate); format: biochemical; settings: Class B; nitrocefin substrate, 486 nm; read-out: VIM-2
T1 construct: made in house; host or cells: E. coli BL21(DE3)
Method in brief: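 Nitrocefin hydrolysis (100 μM final, A486 read for 10 min) by purified VIM-2 after a 15-min, 37° C enzyme–inhibitor preincubation. IC50 is the concentration halving initial hydrolysis rate, derived from percent inhibition against no-inhibitor wells.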

OXA-48 = OXA-48 (UniProt Q6XEC0); assay: β-lactamase enzyme inhibition assay, Class D oxacillinase; format: biochemical; settings: read-out: OXA-48
[2] = test system: E. cloacae expressing the Class C P99; assay: Broth microdilution MIC assay with ceftazidime, E. cloacae P99; format: cell-based; settings: Fixed CAZ (ceftazidime) 4 μg/mL; E. cl. 144200 p99 AmpC
Method in brief: as §1

SHV-5 = molecular target: T2, SHV-5 (Klebsiella pneumoniae, UniProt P0A3M1); assay: β-lactamase enzyme inhibition assay, SHV-5 (cefotaxime substrate); format: biochemical
T2 construct: made in house; host or cells: E. coli BL21(DE3)
Method in brief: (§2)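 Untagged enzyme from E. coli BL21(DE3), purified by Capto S then Superdex 75; 15 min 37 °C preincubation with inhibitor; KPC-2 read with imipenem at 300 nm, SHV-5 with cefotaxime at 260 nm, OXA-1 with nitrocefin 100 μM final at 486 nm; 10 min kinetic read; IC50 vs uninhibited wells.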

[3] = test system: P. aeruginosa expressing the Class B carbapenemase VIM-2; assay: Broth microdilution MIC assay with meropenem, P. aeruginosa VIM-2; format: cell-based; settings: Fixed Mero (meropenem) 4 μg/mL; P. aerug. 2775 VIM-2
Method in brief: as §1

KPC-2 = molecular target: T3, KPC-2 (Klebsiella pneumoniae, UniProt Q9F663); assay: β-lactamase enzyme inhibition assay, KPC-2 (imipenem substrate); format: biochemical; settings: Class A; imipenem substrate, 300 nm; read-out: KPC-2
T3 construct: made in house; host or cells: E. coli BL21(DE3)
Method in brief: as §2

AmpC = molecular target: T4, AmpC (Enterobacter cloacae, UniProt P05364); assay: β-lactamase enzyme inhibition assay, p99 AmpC (nitrocefin substrate); format: biochemical
T4 construct: made in house; host or cells: E. coli BL21(DE3)
Method in brief: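 Untagged enzyme from E. coli BL21(DE3), purified by Capto S then Superdex 75; 15 min 37 °C preincubation with inhibitor; 10 min kinetic read; IC50 vs uninhibited wells.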

[4] = test system: K. pneumoniae expressing the Class A carbapenemase KPC-2; assay: Broth microdilution MIC assay with meropenem, K. pneumoniae KPC-2; format: cell-based; settings: Fixed Mero (meropenem) 4 μg/mL; K. p. 156319 KPC-3
Method in brief: as §1

[5] = test system: K. pneumoniae producing the Class D carbapenemase OXA-48; assay: Broth microdilution MIC assay with meropenem, K. pneumoniae OXA-48; format: cell-based; settings: Fixed Mero (meropenem) 4 μg/mL; K. p. 11978 OXA-48
Method in brief: as §1

[6] = test system: K. pneumoniae expressing the class A carbapenemase KPC-2 and the class B carbapenemase VIM-4; assay: Broth microdilution MIC assay with meropenem, K. pneumoniae KPC-2 and VIM-4; format: cell-based; settings: Fixed Mero (meropenem) 4 μg/mL; K. p. A-1797 KPC-2 VIM-4
Method in brief: as §1

T2 sequence (P0A3M1 22-286): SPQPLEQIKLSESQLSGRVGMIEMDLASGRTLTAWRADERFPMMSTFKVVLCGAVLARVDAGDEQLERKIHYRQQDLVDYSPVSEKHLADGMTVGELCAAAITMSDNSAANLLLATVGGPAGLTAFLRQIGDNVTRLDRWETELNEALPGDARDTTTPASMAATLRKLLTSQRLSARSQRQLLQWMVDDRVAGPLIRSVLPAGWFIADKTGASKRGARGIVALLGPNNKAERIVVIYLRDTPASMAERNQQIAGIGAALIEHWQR
T4 sequence (P05364 21-381): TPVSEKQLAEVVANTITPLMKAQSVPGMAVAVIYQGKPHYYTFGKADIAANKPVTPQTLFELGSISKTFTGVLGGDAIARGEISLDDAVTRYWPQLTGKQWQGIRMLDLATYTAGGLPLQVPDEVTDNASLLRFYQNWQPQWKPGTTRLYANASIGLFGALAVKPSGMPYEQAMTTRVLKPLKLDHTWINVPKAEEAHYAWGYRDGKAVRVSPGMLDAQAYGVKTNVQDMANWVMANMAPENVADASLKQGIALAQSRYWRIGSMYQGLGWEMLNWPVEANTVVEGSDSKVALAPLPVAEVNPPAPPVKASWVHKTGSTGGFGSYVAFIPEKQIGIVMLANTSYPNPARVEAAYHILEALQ
T3 sequence (Q9F663 25-293, looked up): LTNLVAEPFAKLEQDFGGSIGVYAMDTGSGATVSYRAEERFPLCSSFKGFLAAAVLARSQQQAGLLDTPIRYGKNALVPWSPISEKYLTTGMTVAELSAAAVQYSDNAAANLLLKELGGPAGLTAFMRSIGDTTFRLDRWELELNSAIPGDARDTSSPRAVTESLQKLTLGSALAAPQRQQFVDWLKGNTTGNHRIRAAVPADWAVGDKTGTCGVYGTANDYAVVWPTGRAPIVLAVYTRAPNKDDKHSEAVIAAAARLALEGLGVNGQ

Compound | MIC (μg/mL) of Exemplary Compounds in presence of fixed β-lactams: E. coli ESBL4 CTX-M-15 [1] | IC50 (VIM-2) | IC50 (OXA-48) | MIC (μg/mL) of Exemplary Compounds in presence of fixed β-lactams: E. cl. 144200 p99 AmpC [2] | IC50 (SHV-5) | MIC (μg/mL) of Exemplary Compounds in presence of fixed β-lactams: P. aerug. 2775 VIM-2 [3] | IC50 (KPC-2) | IC50 (AmpC) | MIC (μg/mL) of Exemplary Compounds in presence of fixed β-lactams: K. p. 156319 KPC-3 [4] | MIC (μg/mL) of Exemplary Compounds in presence of fixed β-lactams: K. p. 11978 OXA-48 [5] | MIC (μg/mL) of Exemplary Compounds in presence of fixed β-lactams: K. p. A-1797 KPC-2 VIM-4 [6]
CCN(CC)Cc1cn(CC(=O)N[C@H]2Cc3cccc(C(=O)O)c3OB2O)nn1 [Example 27, (R)-3-(2-(4-((diethylamino)methyl)-1H-1,2,3-triazol-1-yl)acetamido)-2-hydroxy-3,4-dihydro-2H-benzo[e][1,2]oxaborinine-8-carboxylic acid] | C (C represents an MIC of <1 μg/mL) | 100 to 1000 nM | 100 to 1000 nM | C (C represents an MIC of <1 μg/mL) | < 100 nM | B (B represents an MIC between 1 and 16 μg/mL inclusive) | < 100 nM | < 100 nM | B (B represents an MIC between 1 and 16 μg/mL inclusive) | B (B represents an MIC between 1 and 16 μg/mL inclusive) | B (B represents an MIC between 1 and 16 μg/mL inclusive)
O=C(Cn1nnc(CC(=O)N[C@H]2Cc3cccc(C(=O)O)c3OB2O)n1)N[C@H]1CCNC1 [Example 44] | C (C represents an MIC of <1 μg/mL) | < 100 nM | 100 to 1000 nM | C (C represents an MIC of <1 μg/mL) | < 100 nM | C (C represents an MIC of <1 μg/mL) | < 100 nM | < 100 nM | B (B represents an MIC between 1 and 16 μg/mL inclusive) | B (B represents an MIC between 1 and 16 μg/mL inclusive) | B (B represents an MIC between 1 and 16 μg/mL inclusive)
N=C(N)NCc1nc(CC(=O)N[C@H]2Cc3cccc(C(=O)O)c3OB2O)cs1 [Example 24, (R)-3-(2-(2-(guanidinomethyl)thiazol-4-yl)acetamido)-2-hydroxy-3,4-dihydro-2H-benzo[e][1,2]oxaborinine-8-carboxylic acid] | C (C represents an MIC of <1 μg/mL) | 100 to 1000 nM | 100 to 1000 nM | C (C represents an MIC of <1 μg/mL) | < 100 nM | B (B represents an MIC between 1 and 16 μg/mL inclusive) | < 100 nM | < 100 nM | B (B represents an MIC between 1 and 16 μg/mL inclusive) | B (B represents an MIC between 1 and 16 μg/mL inclusive) | B (B represents an MIC between 1 and 16 μg/mL inclusive)
N=C(N)N1CC(c2cn(CC(=O)N[C@H]3Cc4cccc(C(=O)O)c4OB3O)nn2)C1 [Example 91, (R)-3-(2-(4-(1-carbamimidoylazetidin-3-yl)-1H-1,2,3-triazol-1-yl)acetamido)-2-hydroxy-3,4-dihydro-2H-benzo[e][1,2]oxaborinine-8-carboxylic acid] | C (C represents an MIC of <1 μg/mL) | 100 to 1000 nM | 1000 to 10000 nM | C (C represents an MIC of <1 μg/mL) | < 100 nM | B (B represents an MIC between 1 and 16 μg/mL inclusive) | < 100 nM | < 100 nM | C (C represents an MIC of <1 μg/mL) | B (B represents an MIC between 1 and 16 μg/mL inclusive) | B (B represents an MIC between 1 and 16 μg/mL inclusive)
NCC(=O)NCc1cn(CC(=O)N[C@H]2Cc3cccc(C(=O)O)c3OB2O)nn1 [Example 76, (R)-3-(2-(4-((2-aminoacetamido)methyl)-1H-1,2,3-triazol-1-yl)acetamido)-2-hydroxy-3,4-dihydro-2H-benzo[e][1,2]oxaborinine-8-carboxylic acid] | C (C represents an MIC of <1 μg/mL) | < 100 nM | 100 to 1000 nM | C (C represents an MIC of <1 μg/mL) | < 100 nM | C (C represents an MIC of <1 μg/mL) | 100 to 1000 nM | < 100 nM | C (C represents an MIC of <1 μg/mL) | B (B represents an MIC between 1 and 16 μg/mL inclusive) | B (B represents an MIC between 1 and 16 μg/mL inclusive)
N=C(N)NCCn1nnnc1CC(=O)N[C@H]1Cc2cccc(C(=O)O)c2OB1O [Example 47, (R)-3-(2-(1-(2-guanidinoethyl)-1H-tetrazol-5-yl)acetamido)-2-hydroxy-3,4-dihydro-2H-benzo[e][1,2]oxaborinine-8-carboxylic acid] | C (C represents an MIC of <1 μg/mL) | < 100 nM | 1000 to 10000 nM | C (C represents an MIC of <1 μg/mL) | < 100 nM | C (C represents an MIC of <1 μg/mL) | < 100 nM | < 100 nM | C (C represents an MIC of <1 μg/mL) | C (C represents an MIC of <1 μg/mL) | B (B represents an MIC between 1 and 16 μg/mL inclusive)
O=C(Cc1nnnn1CC1CCNCC1)N[C@H]1Cc2cccc(C(=O)O)c2OB1O [Example 98, (R)-2-hydroxy-3-(2-(1-(piperidin-4-ylmethyl)-1H-tetrazol-5-yl)acetamido)-3,4-dihydro-2H-benzo[e][1,2]oxaborinine-8-carboxylic acid] | C (C represents an MIC of <1 μg/mL) | < 100 nM | 100 to 1000 nM | C (C represents an MIC of <1 μg/mL) | < 100 nM | C (C represents an MIC of <1 μg/mL) | < 100 nM | < 100 nM | C (C represents an MIC of <1 μg/mL) | B (B represents an MIC between 1 and 16 μg/mL inclusive) | B (B represents an MIC between 1 and 16 μg/mL inclusive)
